What all share (assay): CXCR6 receptor antagonists, dose response, cell-based, beta-arrestin, DiscoveRx, APJ panel, uHTS hits (AID 624129)
The target in test [1] is C-X-C chemokine receptor type 6 (Homo sapiens) (UniProt O00574). The following applies: CXCR6 beta-arrestin (DiscoveRx) antagonist cell assay.
Test [2] addresses C-C chemokine receptor type 6 (Homo sapiens) (UniProt P51684). The following applies: CXCR6 beta-arrestin (DiscoveRx) antagonist cell assay.
In test [3] the target is Beta-galactosidase (Escherichia coli) (UniProt Q8VNN2). The conditions noted are these: CXCR6 beta-arrestin (DiscoveRx) antagonist cell assay, b-galactosidase.
Sequence of Beta-galactosidase (Escherichia coli) (Q8VNN2 whole entry, looked up): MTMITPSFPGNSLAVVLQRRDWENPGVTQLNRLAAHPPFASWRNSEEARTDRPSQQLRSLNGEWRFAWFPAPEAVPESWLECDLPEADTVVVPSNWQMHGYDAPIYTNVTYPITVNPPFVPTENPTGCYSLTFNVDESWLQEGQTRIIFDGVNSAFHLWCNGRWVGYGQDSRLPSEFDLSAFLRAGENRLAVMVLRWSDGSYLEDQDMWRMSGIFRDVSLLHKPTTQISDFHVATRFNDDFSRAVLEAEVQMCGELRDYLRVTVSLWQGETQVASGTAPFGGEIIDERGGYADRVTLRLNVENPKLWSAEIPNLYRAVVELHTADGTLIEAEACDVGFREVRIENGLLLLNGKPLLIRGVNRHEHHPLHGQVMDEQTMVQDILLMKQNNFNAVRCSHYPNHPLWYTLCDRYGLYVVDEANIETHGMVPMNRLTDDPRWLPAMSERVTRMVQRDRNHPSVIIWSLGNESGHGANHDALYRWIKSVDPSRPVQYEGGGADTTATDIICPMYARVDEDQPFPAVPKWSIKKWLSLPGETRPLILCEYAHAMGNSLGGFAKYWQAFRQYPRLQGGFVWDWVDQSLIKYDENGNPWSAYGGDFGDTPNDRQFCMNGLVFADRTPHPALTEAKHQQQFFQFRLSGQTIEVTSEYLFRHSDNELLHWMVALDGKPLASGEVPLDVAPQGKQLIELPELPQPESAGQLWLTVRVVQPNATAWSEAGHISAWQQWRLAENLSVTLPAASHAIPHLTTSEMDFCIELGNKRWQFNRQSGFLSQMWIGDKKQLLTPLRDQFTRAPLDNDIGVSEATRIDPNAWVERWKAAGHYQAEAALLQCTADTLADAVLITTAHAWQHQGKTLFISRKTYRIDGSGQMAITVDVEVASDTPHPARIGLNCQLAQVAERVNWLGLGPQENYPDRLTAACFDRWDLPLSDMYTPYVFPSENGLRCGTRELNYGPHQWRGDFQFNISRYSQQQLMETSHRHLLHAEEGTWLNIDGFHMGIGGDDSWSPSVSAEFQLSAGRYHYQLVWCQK
Test [4] deals with Apelin receptor (Homo sapiens) (UniProt P35414). The conditions noted are these: CXCR6 beta-arrestin (DiscoveRx) antagonist cell assay, APJ.
The mark [5] stands for this setting: CXCR6, dose range 1, mean IC50 across replicates.
Setting [6] is: CCR6, dose range 1, mean IC50 across replicates.
[7] abbreviates: dose range 1, mean IC50 across replicates.
Where [8] appears, read: CXCR6, run 1, dose range 2, at 80 µM (top of the series).

This passage reports IC50 and inhibition results from PubChem BioAssay AID624129 (Sanford-Burnham Center for Chemical Genomics, 2012).

Calls of active or inactive are those of the source. How the calls were made is not given here.

Sequence of C-X-C chemokine receptor type 6 (Homo sapiens) (O00574 whole entry, looked up): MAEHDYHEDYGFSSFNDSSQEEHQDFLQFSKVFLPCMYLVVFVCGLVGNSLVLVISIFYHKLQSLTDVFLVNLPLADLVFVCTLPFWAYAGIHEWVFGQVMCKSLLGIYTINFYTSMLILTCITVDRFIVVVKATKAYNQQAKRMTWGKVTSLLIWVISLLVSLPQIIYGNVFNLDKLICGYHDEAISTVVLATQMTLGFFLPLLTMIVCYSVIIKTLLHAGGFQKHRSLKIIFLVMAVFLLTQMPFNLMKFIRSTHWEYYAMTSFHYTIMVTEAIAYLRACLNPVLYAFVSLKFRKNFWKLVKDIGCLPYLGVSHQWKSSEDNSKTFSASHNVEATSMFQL

As usually defined, the IC50 is the concentration that inhibits the measured activity by half. In the case of `CCc1ccccc1OCC(=O)Nc1nc(-c2cccnc2)cs1`, in test [1] (CXCR6, dose range 1), the IC50 result is “inactive”. Moreover, the IC50 in test [1] (setting [5]) is 11 µM; in test [1] (CXCR6, run 1, dose range 2) it was 7.82 µM; in test [1] (CXCR6, run 2, dose range 1), 16.8 µM; in test [1] (CXCR6, run 2, dose range 2) it was 8.73 µM; in test [2] (CCR6, dose range 1), 6.24 µM; in test [2] (setting [6]), 6.97 µM. For the same compound, the 50% inhibitory concentration (IC50) in test [2] (CCR6, run 2, dose range 1) was 7.7 µM; in test [3] (dose range 1), > 80 µM (inactive); in test [3] (setting [7]), greater than 80 µM; in test [4] (dose range 1), 8.5 µM; in test [4] (setting [7]), 12.5 µM; in test [4] (run 2, dose range 1) it was 12 µM. The IC50 in test [4] (run 3, dose range 1) is 17 µM.
The term inhibition denotes the relative decrease from the control value, in per cent. Turning to `C=C(CN(C)C)C(=O)c1ccc(C)cc1C`, in test [1] (CXCR6, dose range 1), the IC50 result is “inactive”. Moreover, the IC50 in test [1] (setting [5]) was 45.6 µM; in test [1] (CXCR6, run 2, dose range 1), 25.5 µM; in test [2] (CCR6, dose range 1), 26 µM; in test [2] (setting [6]) it was 29.1 µM; in test [2] (CCR6, run 2, dose range 1), 32.3 µM; in test [3] (dose range 1) it was 48.2 µM. The IC50 in test [3] (setting [7]) is 48.2 µM; in test [4] (dose range 1) it was 51.6 µM; in test [4] (setting [7]), 39.5 µM; in test [4] (run 2, dose range 1), 39.9 µM; in test [4] (run 3, dose range 1), 27 µM. In addition, the inhibition in test [1] (setting [8]) was determined as 90.5%.
As for `COc1ccc(NC(=O)/C(Cl)=C(/Cl)S(=O)Cc2ccc(Cl)cc2)cn1` (configuration not stated), the IC50 was > 80 µM (inactive) in test [1] (CXCR6, dose range 1); greater than 80 µM in test [1] (setting [5]); greater than 80 µM in test [1] (CXCR6, run 2, dose range 1); greater than 80 µM in test [2] (setting [6]); greater than 80 µM in test [2] (CCR6, run 2, dose range 1); > 80 µM (inactive) in test [3] (dose range 1). The IC50 is greater than 80 µM in test [3] (setting [7]); greater than 80 µM in test [4] (setting [7]); greater than 80 µM in test [4] (run 2, dose range 1); greater than 80 µM in test [4] (run 3, dose range 1). The inhibition in test [1] (setting [8]) was -36.2%.
`C/C(=N/NC(=O)c1ccc(C(C)(C)C)cc1)c1ccccn1`: the half-inhibitory concentration (IC50) in test [1] (CXCR6, dose range 1) was 1.32 µM; in test [1] (setting [5]), 1.18 µM; in test [1] (CXCR6, run 1, dose range 2) it was 0.9 µM; in test [1] (CXCR6, run 2, dose range 1) it was 1.79 µM; in test [1] (CXCR6, run 2, dose range 2), 0.719 µM; in test [2] (CCR6, dose range 1), 1.26 µM. Also, the IC50 in test [2] (setting [6]) is 1.53 µM; in test [2] (CCR6, run 2, dose range 1) it was 1.8 µM; in test [3] (dose range 1), > 80 µM (inactive); in test [3] (setting [7]), greater than 80 µM; in test [4] (dose range 1) it was 1.12 µM; in test [4] (setting [7]), 1.41 µM. Moreover, the IC50 in test [4] (run 2, dose range 1) was 1.66 µM; in test [4] (run 3, dose range 1) it was 1.45 µM.
With `CC(Oc1ccc(F)cc1)C(=O)Nc1nc(-c2ccccn2)cs1` (configuration not stated), the IC50 in test [1] (CXCR6, dose range 1) is 8.77 µM; in test [1] (setting [5]), 7.74 µM; in test [1] (CXCR6, run 1, dose range 2), 5.99 µM; in test [1] (CXCR6, run 2, dose range 1) it was 8.41 µM; in test [1] (CXCR6, run 2, dose range 2) it was 7.81 µM; in test [2] (CCR6, dose range 1), 7.82 µM. For the same compound, the IC50 in test [2] (setting [6]) was 8.7 µM; in test [2] (CCR6, run 2, dose range 1), 9.57 µM; in test [3] (dose range 1), > 80 µM (inactive); in test [3] (setting [7]), greater than 80 µM; in test [4] (dose range 1), 9.28 µM; in test [4] (setting [7]) it was 9.34 µM. Further, the IC50 was determined as 8.14 µM in test [4] (run 2, dose range 1) and 10.6 µM in test [4] (run 3, dose range 1).
On to `Cc1cc(C)c2ccc(N)nc2c1O`, for which the IC50 is > 80 µM (inactive) in test [1] (CXCR6, dose range 1); greater than 80 µM in test [1] (setting [5]); greater than 80 µM in test [1] (CXCR6, run 2, dose range 1); greater than 80 µM in test [2] (setting [6]); greater than 80 µM in test [2] (CCR6, run 2, dose range 1); > 80 µM (inactive) in test [3] (dose range 1). The half-maximal inhibitory concentration (IC50) in test [3] (setting [7]) is greater than 80 µM; in test [4] (setting [7]), greater than 80 µM; in test [4] (run 2, dose range 1), greater than 80 µM; in test [4] (run 3, dose range 1), greater than 80 µM. In test [1] (setting [8]), the inhibition is -25.6%.
Regarding `COc1ccc(OC)c(/C=C/c2ccc3cccc(O)c3n2)c1`, the IC50 is 4.15 µM in test [1] (CXCR6, dose range 1); 5.39 µM in test [1] (setting [5]); 5.17 µM in test [1] (CXCR6, run 1, dose range 2); 5.26 µM in test [1] (CXCR6, run 2, dose range 1); 6.98 µM in test [1] (CXCR6, run 2, dose range 2); 3.73 µM in test [2] (CCR6, dose range 1). Moreover, the IC50 in test [2] (setting [6]) is 5.88 µM; in test [2] (CCR6, run 2, dose range 1), 8.03 µM; in test [3] (dose range 1), > 80 µM (inactive); in test [3] (setting [7]) it was greater than 80 µM; in test [4] (dose range 1) it was 6.47 µM; in test [4] (setting [7]) it was 8.4 µM. Moreover, the IC50 in test [4] (run 2, dose range 1) was 10.3 µM; in test [4] (run 3, dose range 1), 8.46 µM.
Take `Oc1cccc2ccc(/C=C/c3c(F)cccc3Cl)nc12`: the IC50 in test [1] (CXCR6, dose range 1) was 6.4 µM; in test [1] (setting [5]) it was 5.43 µM; in test [1] (CXCR6, run 1, dose range 2), 3.78 µM; in test [1] (CXCR6, run 2, dose range 1), 6.67 µM; in test [1] (CXCR6, run 2, dose range 2), 4.85 µM; in test [2] (CCR6, dose range 1), 5.94 µM. For the same compound, the IC50 is 5.8 µM in test [2] (setting [6]); 5.66 µM in test [2] (CCR6, run 2, dose range 1); > 80 µM (inactive) in test [3] (dose range 1); greater than 80 µM in test [3] (setting [7]); 6.69 µM in test [4] (dose range 1); 15.4 µM in test [4] (setting [7]). Also, the IC50 amounted to 11.2 µM in test [4] (run 2, dose range 1) and 28.2 µM in test [4] (run 3, dose range 1).
Turning to `COCc1cc(=O)[nH]c(Nc2nc3ccc(C)cc3o2)n1`, the IC50 in test [1] (setting [5]) was 3.61 µM; in test [1] (CXCR6, run 1, dose range 2) it was 3.3 µM; in test [1] (CXCR6, run 2, dose range 1), greater than 80 µM; in test [1] (CXCR6, run 2, dose range 2), 3.93 µM; in test [2] (CCR6, dose range 1), 3.97 µM; in test [2] (setting [6]) it was 4.52 µM. Also, the IC50 is 5.08 µM in test [2] (CCR6, run 2, dose range 1); > 80 µM (inactive) in test [3] (dose range 1); greater than 80 µM in test [3] (setting [7]); 4.2 µM in test [4] (dose range 1); 7.6 µM in test [4] (setting [7]); greater than 80 µM in test [4] (run 2, dose range 1). In test [4] (run 3, dose range 1), this compound came in with an IC50 of 11 µM.
Consider `O=C(CSc1cccc2cccnc12)N/N=C/c1cccnc1`, for which the IC50 in test [1] (CXCR6, dose range 1) is 6.91 µM; in test [1] (setting [5]), 4.34 µM; in test [1] (CXCR6, run 1, dose range 2), 3.34 µM; in test [1] (CXCR6, run 2, dose range 1), 4.25 µM; in test [1] (CXCR6, run 2, dose range 2), 2.87 µM; in test [2] (CCR6, dose range 1) it was 4.18 µM. The IC50 was 5.05 µM in test [2] (setting [6]); 5.92 µM in test [2] (CCR6, run 2, dose range 1); > 80 µM (inactive) in test [3] (dose range 1); greater than 80 µM in test [3] (setting [7]); 3.95 µM in test [4] (dose range 1); 4.26 µM in test [4] (setting [7]). Further, the IC50 in test [4] (run 2, dose range 1) came out at 4.72 µM; in test [4] (run 3, dose range 1), 4.11 µM.
For `O=C1N[C@H](Cc2ccccc2)COC(=O)[C@H](Cc2ccc(F)cc2)CC/C=C/C[C@H]1CC(=O)N(CCO)Cc1ccccc1`, the IC50 in test [1] (CXCR6, dose range 1) was 3.29 µM; in test [1] (setting [5]), 5.31 µM; in test [1] (CXCR6, run 2, dose range 1) it was 7.32 µM; in test [2] (CCR6, dose range 1), 5.96 µM; in test [2] (setting [6]), 7.08 µM; in test [2] (CCR6, run 2, dose range 1) it was 8.19 µM. Also, the IC50 in test [3] (dose range 1) was > 80 µM (inactive); in test [3] (setting [7]), greater than 80 µM; in test [4] (setting [7]), 4.7 µM; in test [4] (run 2, dose range 1), greater than 80 µM; in test [4] (run 3, dose range 1), 4.7 µM. Besides, the inhibition in test [1] (CXCR6, run 1, dose range 2, at 20 µM (top of the series)) is 67.7%.
Regarding `O=C(/C=C/c1cccc([N+](=O)[O-])c1)c1ccc([N+](=O)[O-])o1`, in test [1] (CXCR6, dose range 1), the IC50 entry is “inactive”. In addition, the concentration for half-maximal inhibition (IC50) in test [1] (setting [5]) is 19 µM; in test [1] (CXCR6, run 1, dose range 2) it was 7.73 µM; in test [1] (CXCR6, run 2, dose range 1) it was greater than 80 µM; in test [1] (CXCR6, run 2, dose range 2) it was 7.58 µM; in test [2] (CCR6, dose range 1), 6.68 µM; in test [2] (setting [6]), 20.8 µM. For the same compound, the IC50 is 34.9 µM in test [2] (CCR6, run 2, dose range 1); > 80 µM (inactive) in test [3] (dose range 1); greater than 80 µM in test [3] (setting [7]); greater than 80 µM in test [4] (setting [7]); greater than 80 µM in test [4] (run 2, dose range 1); greater than 80 µM in test [4] (run 3, dose range 1).
